Experimental findings from patent US6960573B2, “Vitamin D3 derivative and treating agent for inflammatory respiratory disease using same” (Teijin Limited, priority 1998, dated 2005) are described below.

Test system in the first series: not listed separately
Nature of the series: Blood calcium level-elevation effect, oral administration to rats. It counts as in vivo. As to conditions: ratio to 1α,25-dihydroxyvitamin D3. The text has this: For example, the blood calcium level-elevation effects of compounds of the present invention in oral administration to rats, which are compared with that of 1 α,25-dihydroxyvitamin D3, are as shown below: • Compound No. 3105c, 1/>100 • Compound No.3405, 1/>100 • Compound No. 5102, 1/259 • Compound No. 5107, 1/11.
Consider `C=C1/C(=C\C=C2/CCC[C@@]3(C)C2CC[C@@H]3[C@H](C)CCC[C@@](C)(O)C(=O)N(C)C)C[C@@H](O)C[C@@H]1O` (some centres unmarked) [Compound No. 5102], for which the “blood calcium level-elevation effect compared with that of 1α,25-dihydroxyvitamin D3” value was 1/259. `C=C1/C(=C\C=C2/CCC[C@@]3(C)C2CC[C@@H]3[C@H](C)CCC[C@@](C)(O)C(C)=O)C[C@@H](O)C[C@@H]1O` (some centres unmarked) [Compound No. 5107]: the “blood calcium level-elevation effect compared with that of 1α,25-dihydroxyvitamin D3” value was 1/11.

The next series deals with hamster LPS-induced pneumonia model. Nature of the series: Neutrophilic infiltration suppressing effect, hamster LPS-induced pneumonia model. In kind it is in vivo, golden hamster. As to conditions: Mesocricetus auratus, Neutrophil, inhaled or nasal; dose 4 μg/kg, administered infratracheally just after LPS inhalation; neutrophils in washing after 24 hr; read-out: % Suppression (number of neutrophils, based on the control). The protocol:
A male golden hamster was placed in an inhalation chamber (volume: 12 liter) and allowed to inhale LPS (nebulizer filled concentration: 2.0 mg/ml) generated by an ultrasonic nebulizer for 30 min to cause pneumonia. Just after the inhalation of the LPS, a treating agent of the present invention was administered infratracheally at a dosage of 1 to 20 μg/kg under halothane anesthesia. After 24 hr, tracheal branches and pulmonary alveoli were washed, and the number of neutrophils in the washing was determined. Using the number of neutrophils obtained in the absence of the treating agent of the present invention as the control, the decreasing rates of the numbers of neutrophils were expressed in terms of percent suppression based on the control.
As for `C=C1/C(=C\C=C2/CCC[C@@]3(C)C2CC[C@@H]3[C@H](C)CC2CC(C)(C)C(=O)O2)C[C@@H](O)C[C@@H]1O` (some centres unmarked) [2102a], the inhibition in vivo at 0.004 mg/kg is > 40%.

For `C=C1/C(=C\C=C2/CCC[C@@]3(C)C2CC[C@@H]3[C@H](C)CC2CC3(CC3)C(=O)O2)C[C@@H](O)C[C@@H]1O` (some centres unmarked) [2105a], the inhibition in vivo at 0.004 mg/kg was > 40%.

Take `C=C1/C(=C\C=C2/CCC[C@@]3(C)C2CC[C@@H]3[C@H](C)/C=C2\CCC(C)(F)C2=O)C[C@@H](O)C[C@@H]1O` (some centres unmarked) [3105d]: the inhibition in vivo at 0.004 mg/kg was > 40%.

As for `C=C1/C(=C\C=C2/CCC[C@@]3(C)C2CC[C@@H]3[C@H](C)CC2CCC(=O)C2)C[C@@H](O)C[C@@H]1O` (some centres unmarked) [4101a], the inhibition in vivo at 0.004 mg/kg was 20 to 40%. The same measure, in the same setting: in the case of `C=C1/C(=C\C=C2/CCC[C@@]3(C)C2CC[C@@H]3C(C)/C=C2\CCC(=O)C2(C)O)C[C@@H](O)C[C@@H]1O` (some centres unmarked) [4203b] it was 20 to 40%; in that of `C=C1/C(=C\C=C2/CCC[C@@]3(C)C2CC[C@@H]3[C@H](C)C[C@H]2C=C(C)C(=O)O2)C[C@@H](O)C[C@@H]1O` (some centres unmarked) [Compound No. 1107b], < 20%.

On to `C=C1/C(=C\C=C2/CCC[C@@]3(C)C2CC[C@@H]3[C@H](C)/C=C2\CCN(C)C2=O)C[C@@H](O)C[C@@H]1O` (some centres unmarked) [Compound No. 3405], for which the inhibition in vivo at 0.004 mg/kg was > 40%.

Still in this series, the particulars now being: Mesocricetus auratus, Neutrophil, inhaled or nasal; dose 20 μg/kg, administered infratracheally just after LPS inhalation; neutrophils in washing after 24 hr; read-out: % Suppression (number of neutrophils, based on the control).
Turning to `C=C1/C(=C\C=C2/CCC[C@@]3(C)C2CC[C@@H]3[C@H](C)CC2=CC(=O)CC2)C[C@@H](O)C[C@@H]1O` (some centres unmarked) [Compound No. 4301], the inhibition in vivo at 0.02 mg/kg was < 20%.

On to `C=C1/C(=C\C=C2/CCC[C@@]3(C)C2CC[C@@H]3[C@H](C)CCC[C@@](C)(O)C(=O)N(C)C)C[C@@H](O)C[C@@H]1O` (some centres unmarked) [Compound No. 5102], for which the inhibition in vivo at 0.02 mg/kg was > 40%.

On to `C=C1/C(=C\C=C2/CCC[C@@]3(C)C2CC[C@@H]3[C@H](C)CCC[C@@](C)(O)C(=O)N2CCCCC2)C[C@@H](O)C[C@@H]1O` (some centres unmarked) [Compound No. 5106], for which the inhibition in vivo at 0.02 mg/kg lay within 20 to 40%. The same measure, in the same setting: for `C=C1/C(=C\C=C2/CCC[C@@]3(C)C2CC[C@@H]3[C@H](C)CCC[C@@](C)(O)C(C)=O)C[C@@H](O)C[C@@H]1O` (some centres unmarked) [Compound No. 5107] the value was > 40%. `C=C1/C(=C\C=C2/CCC[C@@]3(C)C2CC[C@@H]3[C@H](C)CCC[C@@](C)(O)C(C)(C)O)C[C@@H](O)C[C@@H]1O` (some centres unmarked) [compound 5109]: the inhibition in vivo at 0.02 mg/kg was in the range of 20 to 40%.
